# Laboratory results taken from patent publication US8859615B2, “Compounds, compositions and methods for reducing toxicity and treating or preventing diseases” (priority 2008, dated 2014).
# Where “and” joins values, the source holds several entries; their conditions need not be identical. Equal values may be shown once.
# Tested on: human colon carcinoma HCT-116 xenografts
# Test: Compound D with Iso-Oxazole-Fludelone or Isodehydelone in nude mice bearing HCT-116 xenografts
# Settings: mouse, in vivo
substance,measurement,value
iso-oxazole-fludelone (17-isooxazole-fludelone) [Iso-Flu],complete remission (CR),6/6 and 1/6
